Assay results as given in patent publication US10240133B2, “ERK-derived peptides and uses thereof” (Yeda Research and Development Co. Ltd., priority 2013, dated 2019).

Legend:
ERK1/2 = test: Nuclear translocation of ERK (fluorescence microscopy, subcellular fractionation); format: cell-based
Description: FIGS. 1A-1F illustrate that EPE peptide prevents nuclear translocation of ERK1. A2352 (A), MDA-MB-231 (B) HeLa (C), T47D (D), NHEM-AD (E) and HB2 (F) cells were serum-starved, pretreated with the EPE peptides, Scr peptide (10 μM, 2 h) DMSO and then either stimulated with TPA (250 nM, 15 min) or left untreated (NS) as control. The cells were stained with αgERK1/2 Ab and DAPI. Scale-bar—15 μm.
FIGS. 12A-12D illustrate that the EPE peptide inhibits the nuclear translocation of ERK1/2. Serum-starved (0.1% FCS, 16 hr) A2352 (FIG. 12A), HeLa (FIG. 12B), MDA-MB-231 (FIG. 12C), or LOXMVI (FIG. 12D) cells were pretreated with EPE or scrambled peptides (10 μM, 2 hr). Cells were then stimulated with EGF (50 ng/ml) or left untreated, and then harvested. Subcellular fractionation of cytoplasm and nucleus was performed as below, and fractions were subjected to Western blot analysis with the indicated Abs. Subcellular Fractionation was performed as follows: Harvested cells were resuspended in 200 μl of buffer H containing 0.1% Nonidet P-40. The lysates were mixed vigorously and centrifuged immediately to yield supernatants containing the cytosolic fraction. Nuclear proteins were extracted by resuspending the nuclear pellets in 200 μl of extraction buffer, waiting on ice for 5 min, brief sonication (2×5 sec, 40 W, 4° C.), vigorous mixing, and centrifugation. Both cytosolic and nuclear fractions were subjected to Western blotting.
A2185 (A) and A2352 (B) B-Raf melanoma cells were serum-starved (16 hours, 0.1% FBS), and then either pretreated with the EPE peptides (10 μM, 2 hours) or left untreated. Then, the cells were stimulated with TPA ([…], 20 min), or left untreated (NS) DMSO as control. The cells were stained with either anti ERK1 (Santa Cruz, C16) or anti ERK2 (C14, Santa Cruz) Abs and DAPI. (C) Quantification of the number of cell in which ERK1 or ERK2 were mostly (>80%) localized in the nucleus was performed by counting 5 fields containing 100 cells per field.
FIGS. 15A-15B illustrate that the EPE peptide prevents nuclear accumulation/translocation of ERK1/2 in PLX4032-resistant melanoma cells. A2352 that were made resistant to PLX4032 (as described under Material and Methods) and A4132 PLX4032 resistant melanoma cell from patient were serum-starved (16 hours, 0.1%), pretreated with the EPE or scrambled peptide (10 μM, 2 hours) and then either stimulated with TPA (100 nM, 20 min) or left untreated (NT) as control. The cells were stained with αgERK1/2 Ab and DAPI.
Cells were fixed in 3% paraformaldehyde in PBS (20 min, 23° C.), and then permeabilized and blocked with 0.2% Triton X-100 in PBS-BSA (2%) for 20 min at 23° C. The fixed cells were sequentially incubated with appropriated Abs, (diluted in 10 μg/ml BSA/PBS) for 1 h, followed by either Cy-2 or rhodamine-conjugated secondary Abs and DAPI (diluted in BSA/PBS, 1:200) for 1 h. To follow the subcellular localization of the biotin-conjugated peptides, cells were incubated with Avidin-FITC (diluted in BSA/PBS 1:400) and DAPI. Slides were analyzed and photographed by a fluorescent microscope (Nikon, Japan, 600× magnification).

AKT = test: Western blotting of AKT phosphorylation; format: cell-based
Description: (A) EPE peptide prevents ERK1/2-importin7 interaction. HeLa cells were serum starved (0.1%, 16 hours), pretreated with EPE peptide, scrambled peptide (10 μM, 2 hours) or DMSO, and then stimulated with TPA (250 nM, 15 min). ERK1 were precipitated with αgERK1 Ab; importin7 co-immunoprecipitated with ERK1 was detected by WB with αimportin7 Ab. […] T47D, HeLa, MDA-MB-231 and A2352 cells were serum starved (0.1%, 16 hours), pretreated with EPE peptide, scrambled peptide (10 μM, 2 hours) or DMSO control, and then stimulated with TPA (250 nM, indicated times). Cell extracts were subjected to Western blot analysis with the indicated Abs. (C) EPE peptide inhibits phosphorylation of c-Myc and Elk1 in B-Raf melanomas. A2158 and A2352 cells were treated with scrambled and EPE peptide for two hours and then stimulated with the indicated concentration of TPA for 30 min. […] (D) Quantification of some of the results in B and C. […]
(i) Preparation of cellular extracts for Western Blotting: Cells were rinsed twice with ice-cold PBS and scraped into Radio-immunoprecipitation assay buffer (RIPA; 137 mM NaCl, 20 mM Tris (pH 7.4), 10% glycerol, 1% Triton X-100, 0.5% deoxycholate, 0.1% SDS, 2 mM EDTA, 1 mM PMSF, and 20 μM leupeptin). The extracts were centrifuged (20,000×g, 15 min, 4° C.), and the supernatants were further analyzed by Western blotting. […]

**Q.** Which results are given for “GQLNHILGILGEPEQED (Synthetic peptide (EPE)) [EPE peptide, NTS-derived peptide with phosphomimetic EPE motif]”?
**A.** inhibitory effect on nuclear translocation of ERK, compared among SPS, EPE and APA peptides (ERK1/2): stronger than that of the other two; inhibition of ERK1 versus ERK2 translocation (ERK1/2; A2185 and A2352 B-Raf melanoma cells): No significant differences between the inhibition of ERK1 and ERK2; nuclear translocation of ERK1/2 by subcellular fractionation (ERK1/2; A2352, HeLa, MDA-MB-231, LOXMVI, 10 μM, 2 hr, EGF): same trend of inhibition; amount of nuclear ERK1/2 in resistant melanoma cells (ERK1/2; PLX4032-resistant A2352 and A4132 cells, 10 μM, 2 hours, TPA): reduced the amount of nuclear ERK1/2 both before and after stimulation; activation of AKT in resistant melanoma cells (AKT; data not shown): No significant effects; basal or stimulated phosphorylation of AKT (AKT; shortly after stimulation or longer time periods after treatment): no effect on the basal or stimulated phosphorylation of AKT
